Reference: US7238723B2, “Indole derivatives” (Pfizer Inc., priority 2003, dated 2007)
Structures can show the parent of a compound that is named as a salt.

Columns and labels:
[1] = on further processing; cited from earlier work
[2] = 4 weeks at 40° C. and 90% relative humidity; cited from earlier work
[3] = Storage stability of the drug substance, HPLC analysis; assay type: physicochemical; conditions: double polyethylene bags inside a fibreboard drum
Protocol: • 1) Eletriptan hydrobromide monohydrate was stored in double polyethylene bags inside a fibreboard drum under the following conditions: • 25° C./60% RH for 9 months • 30° C./60% RH for 9 months • 40° C./75% RH for 6 months • (RH=relative humidity)

[4] = Moisture sorption by Dynamic Vapour Sorption (DVS); assay type: physicochemical; conditions: 30° C.
Protocol: The moisture sorption of eletriptan hydrobromide monohydrate was determined using a Dynamic Vapour Sorption (DVS) Automated Sorption Analyser Model DVS-1 instrument manufactured by Surface Measurements Systems Ltd., UK.
Approximately 25 mg of eletriptan hydrobromide monohydrate was accurately weighed into a sample pan. This was exposed to humidities in the range of from 0 to 90% RH. The analysis was carried out in detail in the range of from 0 to 15% RH, using 15% RH steps in the range of from 15 to 90% RH. The analysis temperature was 30° C. with a nitrogen flow rate of 200 cm^3min^−1.
Once the monohydrate has formed there is very little additional moisture sorbed and within the range 10 to 90% RH less than 0.3% w/w of water is sorbed.

Compound | stability of the solid form [1] | water absorbed on standing [2] [% by weight] | degradation on storage (HPLC) ([3]; 25° C./60% RH for 9 months) | degradation on storage (HPLC) ([3]; 30° C./60% RH for 9 months) | degradation on storage (HPLC) ([3]; 40° C./75% RH for 6 months) | hygroscopicity ([4]; 0 to 90% RH) | hydrate state ([4]; above 6% RH) | water lost (water of the monohydrate) ([4]; at 0% RH) [% w/w] | water sorbed ([4]; within the range 10 to 90% RH)
Br.CN1CCC[C@@H]1Cc1c[nH]c2ccc(CCS(=O)(=O)c3ccccc3)cc12 [anhydrous eletriptan hydrobromide] | unstable and to undergo polymorphic conversion to the alpha-form | ≤ 1.23 |  |  |  |  |  |  | 
CN1CCC[C@@H]1Cc1c[nH]c2ccc(CCS(=O)(=O)c3ccccc3)cc12 [eletriptan hydrobromide monohydrate] |  |  | no degradation had occurred | no degradation had occurred | no degradation had occurred | essentially non-hygroscopic | remains as a monohydrate | 3.8 | less than 0.3 % w/w
